Measured values taken from patent US20230131402A1, “SPIRO-LACTAM NMDA RECEPTOR MODULATORS AND USES THEREOF” (Aptinyx Inc., priority 2016, published 2023).
Like-named read-outs stand apart in the source and are kept apart here.

Experiments:
NMDAR2B = target: T1, NMDAR2B (Homo sapiens, UniProt Q13224); experiment: [3H]MK-801 binding, NMDAR2B expressing HEK cell membranes; assay type: biochemical; conditions: for Emax: read-out: NMDAR2B A: % maximal [3H]MK-801 binding relative to 1 mM glycine
T1 construct: expressed in transfected cells; host or cells: HEK cells (membrane extract)
Method: (§1) Assays were conducted as described by Moskal et al., “GLYX-13: a monoclonal antibody-derived peptide that acts as an N-methyl-D-aspartate receptor modulator,” Neuropharmacology, 49, 1077-87, 2005. These studies were designed to determine if the test compounds act to facilitate NMDAR activation in NMDAR2A, NMDAR2B, NMDAR2C or NMDAR2D expressing HEK cell membranes as measured by increases in [^3H]MK-801 binding.
(§2) In the assay, 300 μg of NMDAR expressing HEK cell membrane extract protein was preincubated for 15 minutes at 25° C. in the presence of saturating concentrations of glutamate (50 μM) and varying concentrations of test compound (1×10^−15M−1×10^−7M), or 1 mM glycine. Following the addition of 0.3 μCi of [^3H]MK-801 (22.5 Ci/mmol), reactions were again incubated for 15 minutes at 25° C. (nonequilibrium conditions). Bound and free [^3H]MK-801 were separated via rapid filtration using a Brandel apparatus.
(§3) In analyzing the data, the DPM (disintegrations per minute) of [^3H]MK-801 remaining on the filter were measured for each concentration of test compound or for 1 mM glycine. The DPM values for each concentration of a ligand (N=2) were averaged. The baseline value was determined from the best fit curve of the DPM values modeled using the GraphPad program and the log(agonist) vs. response(three parameters) algorithm was then subtracted from all points in the dataset. The % maximal [^3H]MK-801 binding was then calculated relative to that of 1 mM glycine: all baseline subtracted DPM values were divided by the average value for 1 mM glycine. The EC50 and % maximal activity were then obtained from the best fit curve of the % maximal [^3H]MK-801 binding data modelled using the GraphPad program and the log(agonist) vs. response(three parameters) algorithm.
(§4) The tables below summarize the results for the wild type NMDAR agonists NMDAR2A, NMDAR2B, NMDAR2C, and NMDAR2D, and whether the compound is not an agonist (−), is an agonist (+), or is a strong agonist (++), where column A is based on the % maximal [^3H]MK-801 binding relative to 1 mM glycine (−=0; <100%=+; and >100%=++); and column B is based on log EC50 values (0=−; ≥1×10^−9M (e.g., −8)=+; and <1×10^−9M (e.g., −10)=++).

NMDAR2A = target: T2, NMDAR2A (Homo sapiens, UniProt Q12879); experiment: [3H]MK-801 binding, NMDAR2A expressing HEK cell membranes; assay type: biochemical; conditions: for Emax: read-out: NMDAR2A A: % maximal [3H]MK-801 binding relative to 1 mM glycine
T2 construct: expressed in transfected cells; host or cells: HEK cells (membrane extract)
Method: as §1, §2, §3, §4

[1] = Oral pharmacokinetics (plasma, brain, CSF); conditions: rat, 10 mg/kg, per os; for bioavailability / AUC(0-t) / Cmax / Tmax: Sprague Dawley, plasma, po; for bioavailability: % F; for AUC(0-t): AUClast; for AUC(0-t) / Cmax / Tmax: normal saline (compounds marked * in 1% NMP and 99% normal saline)
Method: Plasma, brain, and CSF samples were analyzed at various time points over a 24 hour period.

IV pharmacokinetics = assay type: in vivo, Sprague Dawley rats; conditions: Sprague Dawley, rat, in vivo, iv, 2 mg/kg, normal saline (compounds marked * in 1% NMP and 99% normal saline); for C0: read-out: C0; for Vd: read-out: Vss
Source text: The table below summarizes the results of the IV pharmacokinetics.

[2] = tested on: rats' response (reduced floating time); experiment: Porsolt forced swim test; assay type: in vivo, Sprague Dawley rats; conditions: for % reduction in float time: relative to vehicle group
Method: A non-clinical in vivo pharmacology study (Porsolt assay) was performed to measure antidepressant-like effects. A negative control (0.5% sodium carboxymethyl cellulose in 0.9% sterile saline vehicle) and a positive control (fluoxetine) are shown for comparison against test compound. The study allowed for the evaluation of the effects of each compound on the Porsolt forced swim test as assessed by the rats' response (reduced floating time) during a 5-minute swimming test.
Male 2-3 month old Sprague Dawley rats were used (Harlan, Indianapolis, Ind.). Rats were housed in Lucite cages with aspen wood chip bedding, maintained on a 12:12 light:dark cycle (lights on at 5 AM), and given ad libitum access to Purina lab chow (USA) and tap water throughout the study.
The Porsolt forced swim test adapted for use in rats was performed as described by Burgdorf et al., (The long-lasting antidepressant effects of rapastinel (GLYX-13) are associated with a metaplasticity process in the medial prefrontal cortex and hippocampus. Neuroscience 308:202-211, 2015). Animals were placed in a 46 cm tall×20 cm in diameter clear glass tube filled to 30 cm with tap water (23±1° C.) for 15 min on the first day (habituation) and 5 min on the subsequent test day. Positive control fluoxetine was dosed 3 times (24 h, 5 h and 1 h) prior to testing. Animals were tested 1 h post-dosing with the test compounds or vehicle. Animals received a 15 min habituation session 1 day before the 5 min test. A subset of compounds tested at 1 h post-dosing were retested at 1 wk post-dosing in the same sets of animals. Water was changed after every other animal. Animals were videotaped, and floating time as defined as the minimal amount of effort required to keep the animals head above water was scored offline by a blinded experimenter with high inter-rater reliability (Pearson's r>0.9).
Each compound tested at dose level shown. Significance vs. vehicle group for each experiment is marked. […] A compound marked “No” was not statistically significant from vehicle. Data was averaged for test compound and vehicle groups (N approximately 8 per group) and the percent reduction in floating for group treated with test compound relative to group treated with vehicle is shown.

[3] = 50 μM glutamate, read-out: NMDAR2B B: log EC50 (converted)
[4] = 50 μM glutamate, read-out: NMDAR2A B: log EC50 (converted)
[5] = 1 wk post-dose, 0.1 mg/kg, 0.1 mg/kg
[6] = 1 wk post-dose, 0.1 mg/kg, Yes = p<=0.05 from vehicle
[7] = 1 h post-dose, 0.1 mg/kg, 0.1 mg/kg
[8] = 1 h post-dose, 0.1 mg/kg, Yes = p<=0.05 from vehicle

T2 sequence (Q12879 23-1464, species assumed, other chains not shown): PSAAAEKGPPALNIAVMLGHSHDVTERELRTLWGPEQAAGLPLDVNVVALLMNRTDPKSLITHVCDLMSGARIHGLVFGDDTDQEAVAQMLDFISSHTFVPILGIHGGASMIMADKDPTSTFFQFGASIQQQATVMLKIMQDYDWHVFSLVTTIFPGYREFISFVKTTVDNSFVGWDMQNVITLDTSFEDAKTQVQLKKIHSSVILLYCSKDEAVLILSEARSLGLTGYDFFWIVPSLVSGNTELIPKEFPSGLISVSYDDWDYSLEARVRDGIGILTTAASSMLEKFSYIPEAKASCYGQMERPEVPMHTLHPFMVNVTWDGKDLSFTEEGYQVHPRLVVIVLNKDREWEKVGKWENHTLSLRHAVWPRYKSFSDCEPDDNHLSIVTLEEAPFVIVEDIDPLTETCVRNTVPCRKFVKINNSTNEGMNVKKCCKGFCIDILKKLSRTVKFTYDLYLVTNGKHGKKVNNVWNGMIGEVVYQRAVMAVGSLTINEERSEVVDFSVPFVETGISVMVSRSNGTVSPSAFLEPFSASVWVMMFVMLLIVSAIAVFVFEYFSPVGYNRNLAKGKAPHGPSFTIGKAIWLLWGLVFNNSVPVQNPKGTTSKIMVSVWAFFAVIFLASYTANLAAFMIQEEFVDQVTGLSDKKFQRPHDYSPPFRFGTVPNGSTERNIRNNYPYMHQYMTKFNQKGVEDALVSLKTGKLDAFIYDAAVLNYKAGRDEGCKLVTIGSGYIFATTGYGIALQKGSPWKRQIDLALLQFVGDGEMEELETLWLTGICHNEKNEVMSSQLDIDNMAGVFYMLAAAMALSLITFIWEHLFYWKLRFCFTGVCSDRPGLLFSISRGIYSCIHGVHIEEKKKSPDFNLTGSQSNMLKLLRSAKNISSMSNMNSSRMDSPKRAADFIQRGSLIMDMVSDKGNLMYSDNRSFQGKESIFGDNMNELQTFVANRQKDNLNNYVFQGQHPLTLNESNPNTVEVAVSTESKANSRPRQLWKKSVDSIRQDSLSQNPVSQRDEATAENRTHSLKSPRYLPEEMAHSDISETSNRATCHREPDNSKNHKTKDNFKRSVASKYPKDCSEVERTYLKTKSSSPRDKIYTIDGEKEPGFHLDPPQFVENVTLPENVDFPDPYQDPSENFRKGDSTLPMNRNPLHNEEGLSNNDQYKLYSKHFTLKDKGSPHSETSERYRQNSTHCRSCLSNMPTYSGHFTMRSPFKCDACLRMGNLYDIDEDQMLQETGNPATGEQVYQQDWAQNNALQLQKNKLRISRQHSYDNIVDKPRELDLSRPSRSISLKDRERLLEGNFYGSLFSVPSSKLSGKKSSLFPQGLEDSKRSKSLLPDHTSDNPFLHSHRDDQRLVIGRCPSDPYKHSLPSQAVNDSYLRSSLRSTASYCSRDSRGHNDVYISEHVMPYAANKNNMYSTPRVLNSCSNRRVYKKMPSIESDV
T1 sequence (Q13224 27-1484, species assumed, other chains not shown): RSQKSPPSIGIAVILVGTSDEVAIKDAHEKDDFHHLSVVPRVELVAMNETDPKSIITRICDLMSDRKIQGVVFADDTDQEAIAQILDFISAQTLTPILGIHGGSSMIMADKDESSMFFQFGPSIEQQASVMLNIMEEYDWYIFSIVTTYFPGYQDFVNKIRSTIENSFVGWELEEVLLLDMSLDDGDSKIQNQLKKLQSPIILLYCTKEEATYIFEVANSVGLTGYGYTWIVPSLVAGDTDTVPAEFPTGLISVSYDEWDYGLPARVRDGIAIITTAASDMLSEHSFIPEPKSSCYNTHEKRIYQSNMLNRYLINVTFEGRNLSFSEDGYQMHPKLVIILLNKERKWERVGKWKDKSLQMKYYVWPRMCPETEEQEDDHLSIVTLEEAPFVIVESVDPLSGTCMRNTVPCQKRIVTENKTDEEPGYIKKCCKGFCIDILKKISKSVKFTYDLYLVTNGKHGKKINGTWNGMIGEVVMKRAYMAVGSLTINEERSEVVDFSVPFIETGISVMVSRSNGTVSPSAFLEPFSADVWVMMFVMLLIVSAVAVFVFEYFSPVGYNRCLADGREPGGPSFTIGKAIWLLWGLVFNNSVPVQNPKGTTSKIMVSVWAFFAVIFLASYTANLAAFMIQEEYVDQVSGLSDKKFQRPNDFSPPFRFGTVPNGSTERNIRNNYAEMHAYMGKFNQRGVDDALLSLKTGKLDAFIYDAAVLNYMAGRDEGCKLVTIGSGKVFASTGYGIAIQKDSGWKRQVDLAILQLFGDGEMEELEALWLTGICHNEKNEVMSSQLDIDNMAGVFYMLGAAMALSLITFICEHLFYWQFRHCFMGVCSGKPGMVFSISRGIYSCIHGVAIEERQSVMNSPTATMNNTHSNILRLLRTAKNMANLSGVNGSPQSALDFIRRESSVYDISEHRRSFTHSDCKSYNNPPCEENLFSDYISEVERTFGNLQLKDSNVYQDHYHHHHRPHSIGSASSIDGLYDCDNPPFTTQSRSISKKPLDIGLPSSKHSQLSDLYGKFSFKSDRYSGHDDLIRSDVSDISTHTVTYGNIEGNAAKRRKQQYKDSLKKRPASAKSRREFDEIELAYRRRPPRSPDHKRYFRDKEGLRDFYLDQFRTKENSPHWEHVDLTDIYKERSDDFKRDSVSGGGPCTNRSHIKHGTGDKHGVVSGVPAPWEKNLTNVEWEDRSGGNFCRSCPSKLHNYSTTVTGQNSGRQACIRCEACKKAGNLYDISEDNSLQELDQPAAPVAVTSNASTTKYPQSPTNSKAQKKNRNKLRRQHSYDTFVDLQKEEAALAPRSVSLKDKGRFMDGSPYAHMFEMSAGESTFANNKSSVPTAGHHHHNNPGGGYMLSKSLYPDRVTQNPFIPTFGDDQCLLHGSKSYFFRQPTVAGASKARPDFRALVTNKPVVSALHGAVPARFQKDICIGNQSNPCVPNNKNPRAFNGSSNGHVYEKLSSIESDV

SMILES	NMDAR2B A: % maximal [3H]MK-801 binding relative to 1 mM glycine (NMDAR2B; 50 μM glutamate)	NMDAR2A A: % maximal [3H]MK-801 binding relative to 1 mM glycine (NMDAR2A; 50 μM glutamate)	EC50 (NMDAR2B; [3])	EC50 (NMDAR2A; [4])	bioavailability [1]	AUC(0-t) [1]	Cmax [1]	Tmax [1]	AUC(0-t) (IV pharmacokinetics)	clearance (IV pharmacokinetics)	half-life (IV pharmacokinetics)	C0 (IV pharmacokinetics)	Vd (IV pharmacokinetics)	other results
O=C1NCC12CN(Cc1ccccc1)CCN2Cc1ccccc1 (single isomer, unassigned) [EA-2, 5,8-Dibenzyl-2,5,8-Triazaspiro[3.5]Nonan-1-One]	− (−=0)	− (−=0)												
CC(C)(C)OC(=O)N1CCNC2(CCNC2=O)C1 (single isomer, unassigned) [EM, Tert-Butyl 1-Oxo-2,6,9-Triazaspiro[4.5]Decane-9-Carboxylate]	++ (>100%=++)	+ (<100%=+)	> 1 nM	< 1 nM										
CC(C)(C)OC(=O)N1CCNC2(CCNC2=O)C1 (single isomer, unassigned) [EN, Tert-Butyl 1-Oxo-2,6,9-Triazaspiro[4.5]Decane-9-Carboxylate]	− (−=0)	− (−=0)												
CC(C)(C)OC(=O)N1CCNC2(C1)CN(CC(N)=O)C2=O (stereo not drawn) [ER-141]	+ (<100%=+)	− (−=0)	< 1 nM		31%	2620 ng·h/mL	962 ng/mL	49.8 min	1670 ng·h/mL	19.9 mL/min/kg	33 min	4280 ng/mL	0.7 L/kg	CSF Cmax [1]: 42 ng/mL
CC(C)(C)OC(=O)N1CCNC2(C1)CN(CC(N)=O)C2=O (stereo not drawn) [ER-142]	− (−=0)	+ (<100%=+)		< 1 nM										
O=C1NCCC12CNCCN2 (stereo not drawn) [ES-301]			< 1 nM											Emax (NMDAR2B; 50 μM glutamate): < 100%; Emax (NMDAR2A; 50 μM glutamate): 0%
O=C1NCCC12CNCCN2 (stereo not drawn) [ES-302]	++ (>100%=++)	− (−=0)	< 1 nM		12%	1040 ng·h/mL	340 ng/mL	49.8 min	1720 ng·h/mL	18.9 mL/min/kg	142 min	6090 ng/mL	1.33 L/kg	
CN1CCN(Cc2ccccc2)C2(CCNC2=O)C1 (stereo not drawn) [ES-315]			< 1 nM	< 1 nM										Emax (NMDAR2B; 50 μM glutamate): < 100%; Emax (NMDAR2A; 50 μM glutamate): < 100%; % reduction in float time [2, 5]: 25.0%; Significance vs. vehicle [2, 6]: No; % reduction in float time [2, 7]: 44.1%; Significance vs. vehicle [2, 8]: Yes
CN1CCN(Cc2ccccc2)C2(CCNC2=O)C1 (stereo not drawn) [ES-316]	+ (<100%=+)	+ (<100%=+)			55%	3030 ng·h/mL	2770 ng/mL	15 min	1110 ng·h/mL	30.6 mL/min/kg	138 min	2090 ng/mL	1.75 L/kg	CSF Cmax [1]: 430.2 ng/mL; Brain Cmax [1]: 1583 ng/mL; EC50 (NMDAR2B; read-out: NMDAR2B B: log EC50 (converted), 50 μM glutamate): < 1 nM; EC50 (NMDAR2A; read-out: NMDAR2A B: log EC50 (converted), 50 μM glutamate): < 1 nM; % reduction in float time [2, 5]: 42.4%; Significance vs. vehicle [2, 6]: Yes; % reduction in float time [2, 7]: 49.4%; Significance vs. vehicle [2, 8]: Yes
CNCCC(Oc1ccc(C(F)(F)F)cc1)c1ccccc1 (stereo not drawn) [Fluoxetine, fluoxetine, reference compound]														Significance vs. vehicle ([2]; positive control, 20 mg/kg, dosed 3 times (24 h, 5 h and 1 h) prior to testing): Yes

Second part, led by results:

NMDAR2B A: % maximal [3H]MK-801 binding relative to 1 mM glycine (NMDAR2B; 50 μM glutamate)	NMDAR2A A: % maximal [3H]MK-801 binding relative to 1 mM glycine (NMDAR2A; 50 μM glutamate)	EC50 (NMDAR2B; [3])	EC50 (NMDAR2A; [4])	bioavailability [1]	AUC(0-t) [1]	Cmax [1]	Tmax [1]	AUC(0-t) (IV pharmacokinetics)	clearance (IV pharmacokinetics)	half-life (IV pharmacokinetics)	C0 (IV pharmacokinetics)	Vd (IV pharmacokinetics)	SMILES	other results
+ (<100%=+)	+ (<100%=+)	< 1 nM	< 1 nM	72%	6470 ng·h/mL	4760 ng/mL	19.8 min	1790 ng·h/mL	18.2 mL/min/kg	279 min	2770 ng/mL	1.74 L/kg	CC(=O)N1CCN(Cc2ccccc2)C2(CCNC2=O)C1 (stereo not drawn) [ES-319]	CSF Cmax [1]: 520 ng/mL; Brain Cmax [1]: 758 ng/mL; % reduction in float time ([2]; 1 wk post-dose, 0.1 mg/kg): 60.5%; Significance vs. vehicle [2, 6]: Yes; % reduction in float time ([2]; 1 h post-dose, 0.1 mg/kg): 76.3%; Significance vs. vehicle [2, 8]: Yes
− (−=0)	− (−=0)												CC(=O)N1CCN(Cc2ccccc2)C2(CCNC2=O)C1 (stereo not drawn) [ES-320]	
++ (>100%=++)	+ (<100%=+)	< 1 nM	> 1 nM	16%	466 ng·h/mL	795 ng/mL	15 min	577 ng·h/mL	58.6 mL/min/kg	10.2 min	2570 ng/mL	0.71 L/kg	CC(C)C(=O)N1CCN(Cc2ccccc2)C2(CCNC2=O)C1 (stereo not drawn) [ES-321]	
− (−=0)	− (−=0)												CC(C)C(=O)N1CCN(Cc2ccccc2)C2(CCNC2=O)C1 (stereo not drawn) [ES-322]	
		< 1 nM	< 1 nM										C[C@@H](O)[C@H](N)C(=O)N1CCNC2(CCNC2=O)C1 (stereo partly drawn) [ES-335]	Emax (NMDAR2B; 50 μM glutamate): < 100%; Emax (NMDAR2A; 50 μM glutamate): < 100%; % reduction in float time [2, 5]: 72.9%; Significance vs. vehicle [2, 6]: Yes; % reduction in float time [2, 7]: 58.5%; Significance vs. vehicle [2, 8]: Yes
